In test [1] the target is T1, RXRα (Homo sapiens, UniProt P19793).
T1 sequence (P19793 1-462): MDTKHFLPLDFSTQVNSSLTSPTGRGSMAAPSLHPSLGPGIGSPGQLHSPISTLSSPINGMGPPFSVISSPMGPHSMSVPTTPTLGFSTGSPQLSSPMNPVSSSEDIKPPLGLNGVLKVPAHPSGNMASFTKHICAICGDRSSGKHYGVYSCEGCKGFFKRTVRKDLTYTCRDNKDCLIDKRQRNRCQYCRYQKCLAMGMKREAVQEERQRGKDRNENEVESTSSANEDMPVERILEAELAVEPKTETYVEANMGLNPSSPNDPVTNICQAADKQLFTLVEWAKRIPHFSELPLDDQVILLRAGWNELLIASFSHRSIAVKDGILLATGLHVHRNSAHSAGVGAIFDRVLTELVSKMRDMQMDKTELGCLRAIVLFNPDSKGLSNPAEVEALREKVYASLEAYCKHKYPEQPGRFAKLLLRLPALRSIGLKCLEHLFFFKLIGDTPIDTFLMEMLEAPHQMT
Kind of test: co-transfection assay (RAR/RXR agonist activity, luciferase reporter in CV-1 cells). The conditions noted are these: read-out: RXRα Pot. The format is cell-based.

Test [2] has as its target T2, RXRγ (Mus musculus, UniProt P28705).
T2 sequence (P28705 1-463): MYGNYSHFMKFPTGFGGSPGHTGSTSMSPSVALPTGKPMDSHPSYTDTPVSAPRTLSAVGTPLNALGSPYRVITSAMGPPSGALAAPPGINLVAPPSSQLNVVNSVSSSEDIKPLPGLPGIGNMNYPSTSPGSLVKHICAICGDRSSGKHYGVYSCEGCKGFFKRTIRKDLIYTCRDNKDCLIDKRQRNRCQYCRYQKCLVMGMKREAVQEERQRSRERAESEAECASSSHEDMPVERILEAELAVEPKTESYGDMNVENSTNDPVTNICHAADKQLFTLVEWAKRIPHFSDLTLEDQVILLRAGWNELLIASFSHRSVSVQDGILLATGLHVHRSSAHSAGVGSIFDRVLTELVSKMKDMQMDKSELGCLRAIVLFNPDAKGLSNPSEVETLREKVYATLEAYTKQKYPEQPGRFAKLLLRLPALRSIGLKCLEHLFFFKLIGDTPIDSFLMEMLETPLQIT
The test is described as above. The format is cell-based. The note with it: read-out: RXRγ Pot.

The target in test [3] is T3, RXRβ (Mus musculus, UniProt P28704).
T3 sequence (P28704 1-520): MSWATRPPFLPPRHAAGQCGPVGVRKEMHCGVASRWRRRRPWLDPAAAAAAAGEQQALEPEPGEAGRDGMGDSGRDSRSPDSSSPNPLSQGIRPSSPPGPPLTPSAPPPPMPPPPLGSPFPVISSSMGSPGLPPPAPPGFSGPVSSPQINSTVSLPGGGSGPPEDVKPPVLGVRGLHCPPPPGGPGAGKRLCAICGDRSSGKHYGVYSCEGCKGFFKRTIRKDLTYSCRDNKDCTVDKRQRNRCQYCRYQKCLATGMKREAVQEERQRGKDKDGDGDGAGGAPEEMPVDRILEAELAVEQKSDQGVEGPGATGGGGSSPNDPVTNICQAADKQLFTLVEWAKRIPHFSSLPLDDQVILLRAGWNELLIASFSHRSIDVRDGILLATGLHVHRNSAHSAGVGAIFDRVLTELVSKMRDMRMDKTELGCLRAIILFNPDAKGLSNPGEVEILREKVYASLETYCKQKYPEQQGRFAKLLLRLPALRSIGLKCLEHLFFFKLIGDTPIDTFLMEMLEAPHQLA
Described as above. The format is cell-based. The note with it: read-out: RXRβ Pot.

Test [4] concerns the target T4, RARα (Homo sapiens, UniProt P10276).
T4 sequence (P10276 1-462): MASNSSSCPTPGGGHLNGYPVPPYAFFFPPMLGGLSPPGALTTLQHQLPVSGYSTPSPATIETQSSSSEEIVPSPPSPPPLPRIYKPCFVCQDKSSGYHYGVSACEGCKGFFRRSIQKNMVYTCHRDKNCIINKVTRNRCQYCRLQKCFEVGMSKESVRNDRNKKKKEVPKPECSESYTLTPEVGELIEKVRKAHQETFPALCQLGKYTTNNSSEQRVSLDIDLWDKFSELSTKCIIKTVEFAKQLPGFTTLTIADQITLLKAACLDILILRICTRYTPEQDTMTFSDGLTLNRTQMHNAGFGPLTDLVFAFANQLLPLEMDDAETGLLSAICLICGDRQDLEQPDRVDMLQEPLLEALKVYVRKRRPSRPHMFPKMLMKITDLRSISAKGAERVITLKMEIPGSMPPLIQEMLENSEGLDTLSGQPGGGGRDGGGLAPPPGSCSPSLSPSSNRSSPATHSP
The description is as above. The class given is cell-based. The conditions noted are these: read-out: RARα Pot.

The target of test [5] is T5, RARβ (Homo sapiens, UniProt P10826).
T5 sequence (P10826 1-448 isoform P10826-2): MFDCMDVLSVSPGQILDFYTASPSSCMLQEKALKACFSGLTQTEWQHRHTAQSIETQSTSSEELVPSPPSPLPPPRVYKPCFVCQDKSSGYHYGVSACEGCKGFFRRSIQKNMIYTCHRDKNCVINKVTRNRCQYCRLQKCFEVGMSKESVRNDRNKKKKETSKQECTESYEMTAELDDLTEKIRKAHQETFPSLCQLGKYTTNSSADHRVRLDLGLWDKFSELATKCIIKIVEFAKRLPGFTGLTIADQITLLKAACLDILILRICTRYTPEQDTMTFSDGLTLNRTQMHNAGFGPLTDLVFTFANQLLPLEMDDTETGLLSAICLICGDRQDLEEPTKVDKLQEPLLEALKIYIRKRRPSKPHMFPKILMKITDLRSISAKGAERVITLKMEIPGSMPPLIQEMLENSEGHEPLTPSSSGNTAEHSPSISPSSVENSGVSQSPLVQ
Described as above. The format is cell-based. The conditions noted are these: potency = EC50, agonist, 40 hours, read-out: RARβ Pot.

Test [6] has as its target T6, RARγ (Homo sapiens, UniProt P13631).
T6 sequence (P13631 1-454): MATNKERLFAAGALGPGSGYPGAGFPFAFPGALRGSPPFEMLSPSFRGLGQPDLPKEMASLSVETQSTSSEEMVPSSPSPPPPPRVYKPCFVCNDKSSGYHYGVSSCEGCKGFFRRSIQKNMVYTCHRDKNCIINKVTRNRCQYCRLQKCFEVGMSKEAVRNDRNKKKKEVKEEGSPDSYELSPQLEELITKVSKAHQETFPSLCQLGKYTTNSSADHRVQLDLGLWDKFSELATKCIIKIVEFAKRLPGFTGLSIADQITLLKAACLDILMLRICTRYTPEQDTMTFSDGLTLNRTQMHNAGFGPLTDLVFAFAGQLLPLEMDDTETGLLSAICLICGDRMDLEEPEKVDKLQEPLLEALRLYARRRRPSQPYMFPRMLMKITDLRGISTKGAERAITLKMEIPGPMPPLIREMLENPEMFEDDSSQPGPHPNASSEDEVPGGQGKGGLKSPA
Described as above. The class given is cell-based. The conditions noted are these: potency = EC50, agonist, 40 hours, read-out: RARγ Pot.

The next test concerns AML-193 cell line. Kind of test: viability (tetrazolium dye, mitochondrial function). The format is cell-based. The note with it: Homo sapiens, 96 hours, read-out: MTS IC50.
For a further test, the system named is ME 180 cell line. The description is as above. The note with it: Homo sapiens, 96 hours, read-out: MTS IC50. The format is cell-based.
For another test, the system named is RPMI 8226 cell line. The description is as above. The conditions noted are these: Homo sapiens, 96 hours, read-out: MTS IC50. The class given is cell-based.
For test [7], the target named is T6, RARγ. Kind of test: competitive binding of tritiated retinoids to retinoid receptors. The note with it: competition with tritiated retinoid, Cheng-Prussof equation.
In test [8] the target is T7, RARβ (Homo sapiens, UniProt P10826).
T7 sequence (P10826 1-455): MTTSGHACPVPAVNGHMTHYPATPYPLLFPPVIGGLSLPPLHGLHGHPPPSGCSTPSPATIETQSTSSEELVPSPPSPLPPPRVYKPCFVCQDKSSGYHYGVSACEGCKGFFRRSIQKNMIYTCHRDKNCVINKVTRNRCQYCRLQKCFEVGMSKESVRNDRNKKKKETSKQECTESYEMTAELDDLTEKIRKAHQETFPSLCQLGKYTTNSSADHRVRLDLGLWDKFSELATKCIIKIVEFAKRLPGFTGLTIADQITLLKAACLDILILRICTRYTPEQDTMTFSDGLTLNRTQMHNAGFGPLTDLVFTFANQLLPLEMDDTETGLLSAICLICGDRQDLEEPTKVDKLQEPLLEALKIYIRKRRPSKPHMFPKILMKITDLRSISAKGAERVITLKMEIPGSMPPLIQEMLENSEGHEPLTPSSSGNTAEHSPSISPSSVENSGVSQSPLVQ
Described as above. The conditions noted are these: competition with tritiated retinoid, Cheng-Prussof equation.

For test [9], the target named is T4, RARα. Described as above. The conditions noted are these: competition with tritiated retinoid, Cheng-Prussof equation.
Test [10] addresses T1, RXRα. The description is as above. The note with it: competition with tritiated retinoid, Cheng-Prussof equation.
Test [11] addresses T3, RXRβ. Described as above. The conditions noted are these: competition with tritiated retinoid, Cheng-Prussof equation.
The target of test [12] is T2, RXRγ. The test is described as above. The conditions noted are these: competition with tritiated retinoid, Cheng-Prussof equation.

With `CC(/C=C/CC1CCCc2cc3c(cc21)C(C)(C)CCC3(C)C)=C\C(=O)O` (racemic) [Compound 124b, (2E,4E)-3-Methyl-6-(1,2,3,4,5,6,7,8-octahydro-5,5,8,8-tetramethylanthracen-1-yl)hexa-2,4-dienoic acid], the EC50 at RXRα [1] amounted to 0.038 µM; on RXRγ [2], 0.026 µM; at RXRβ [3], 0.037 µM; on RARα [4], 0.101 µM; on RARβ [5], 0.033 µM; at RARγ [6], 0.094 µM.

Turning to `CC1=C(/C=C/C(C)=C/C=C/C(C)=C/C(=O)O)C(C)(C)CCC1` [ATRA, all-trans retinoic acid, reference compound], the IC50 in the test with AML-193 cell line came to 1 µM; in the test with ME 180 cell line it was 0.89 µM; in the test with RPMI 8226 cell line, 0.756 µM.

For `CC(/C=C/C=C1/CCC(C)(C)c2cc3c(cc21)C(C)(C)CCC3(C)C)=C\C(=O)O` [Compound 106b, (2E,4E)-3-Methyl-6-[(Z)-1,2,3,4,5,6,7,8-hexahydro-4,4,5,5,8,8-hexamethyl-2H-anthracen-1-ylidene]hexa-2,4-dienoic acid], the EC50 was greater than 10 µM on RXRα [1]; 0.127 µM at RXRγ [2]; 0.052 µM on RXRβ [3]; 0.084 µM on RARα [4]; 0.02 µM on RARβ [5]; 0.014 µM at RARγ [6].

For the compound `CC(/C=C/C=C1\CCc2c1ccc1c2C(C)(C)CCC1(C)C)=C\C(=O)O` [Compound 135b, (2E,4E)-3-Methyl-6-[(E)-2,3,6,7,8,9-hexahydro-6,6,9,9-tetramethyl-1H-cyclopenta[a]naphthalen-3-ylidene]hexa-2,4-dienoic acid], the EC50 on RXRα [1] came out at 2.78 µM; at RXRγ [2], 2.53 µM; on RXRβ [3], 1.98 µM; at RARα [4] it was 1.17 µM; on RARβ [5], 0.053 µM; at RARγ [6] it was 0.047 µM.

Turning to `CC(/C=C/C(=O)N1CCc2cc3c(cc21)C(C)(C)CCC3(C)C)=C\C(=O)O` [Compound 141b, (2E,4E)-3-Methyl-6-oxo-6-[(2,3,5,6,7,8-hexahydro-5,5,8,8-tetramethyl)benzo-[f]-indol-1-yl]hexa-2,4-dienoic acid], the EC50 on RXRα [1] was greater than 10 µM; at RXRγ [2], 2.93 µM; at RXRβ [3] it was greater than 10 µM; at RARα [4], 0.863 µM; on RARβ [5], 0.032 µM; at RARγ [6], 0.012 µM.

In the case of `CC(/C=C/CN1CCCc2c1ccc1c2C(C)(C)CCC1(C)C)=C\C(=O)O` [Compound 143b, (2E,4E)-3-Methyl-6-(1,2,3,4,7,8,9,10-octahydro-7,7,10,10-tetramethylbenzo[f]quinolin-4-yl)hexa-2,4-dienoic acid], the EC50 at RXRα [1] is 0.393 µM; at RXRγ [2] it was 0.247 µM; on RXRβ [3] it was 0.472 µM; at RARα [4], greater than 10 µM; at RARβ [5] it was 0.466 µM; at RARγ [6] it was 1.88 µM.

Consider `CCN1CC\C(=C/C=C/C(C)=C/C(=O)O)c2cc3c(cc21)C(C)(C)CCC3(C)C` [Compound 147b, (2E,4E)-3-methyl-6-[(E)1-ethyl-6,6,9,9-tetramethyl-2,3,6,7,8,9-hexahydro-1H-benzo[g]quinolin-4-ylidene]hexa-2,4-dienoic acid], for which the Kd on RARγ [7] amounted to 0.008 µM; at RARβ [8] it was 0.004 µM; on RARα [9], 0.006 µM; on RXRα [10], 0.433 µM; on RXRβ [11], 0.548 µM; at RXRγ [12], 0.724 µM. Moreover, the EC50 at RXRγ [2] was determined as 1.47 µM; at RXRβ [3] it was 0.579 µM; on RARα [4], 0.035 µM; at RARβ [5], 0.004 µM; at RARγ [6], 0.001 µM.

`CC1(C)CCC(C)(C)c2cc3c(cc21)CCC/C3=N\Nc1ccc(C(=O)O)cc1` [Compound 152b, E-4-[N'-(5,5,8,8-tetramethyl-3,4,5,6,7,8-hexahydro-2H-anthracen-1-ylidene)-hydrazino]benzoic acid]: the EC50 on RXRα [1] is greater than 10 µM; at RXRγ [2] it was greater than 10 µM; at RXRβ [3], greater than 10 µM; at RARα [4], 0.651 µM; at RARβ [5], 0.008 µM; on RARγ [6], 0.032 µM.

Values taken from EP0933350A1, “Tricyclic retinoids, methods for their production and use” (LIGAND PHARMACEUTICALS INCORPORATED, priority 1994, dated 1996).
